“And” between values parts separate entries of the source, which are not always exact repeats. Equal values may be shown once. Inconclusive results and toxic doses are left out.
Tested on: BDF1 mice, B16 melanoma ip, median survival T/C
Assay: NCI In Vivo Anticancer Drug Screen. Data for tumor model B16 Melanoma (intraperitoneal) in B6D2F1 (BDF1) mice
Conditions: endpoint: median survival time, higher = longer survival
Method in brief: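 The ratio T/C compares compound-treated mice with vehicle-treated controls, using survival or tumor size as the endpoint in a transplantable tumor model.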

[1] = dose: 100.0 mg/kg/injection, schedule: Q01DX009 (ip), vehicle: saline
[2] = dose: 100.0 mg/kg/injection, schedule: Q04DX003 (ip), vehicle: saline
[3] = dose: 200.0 mg/kg/injection, schedule: Q01DX009 (ip), vehicle: saline
[4] = dose: 200.0 mg/kg/injection, schedule: Q04DX003 (ip), vehicle: saline
[5] = dose: 400.0 mg/kg/injection, schedule: Q04DX003 (ip), vehicle: saline
[6] = dose: 100.0 mg/kg/injection, schedule: Q01DX009 (ip), vehicle: Klucel (hydroxypropylcellulose) (HPC)
[7] = dose: 200.0 mg/kg/injection, schedule: Q01DX009 (ip), vehicle: Klucel (hydroxypropylcellulose) (HPC)
[8] = dose: 50.0 mg/kg/injection, schedule: Q01DX009 (ip), vehicle: saline

CCCC(=O)NC1CCc2cc(OC)c(OC)c(OC)c2-c2ccc(OC)c(=O)cc21 (centres undefined)
T/C (dose: 0.15 mg/kg/injection, schedule: Q01DX009 (ip), vehicle: Klucel (hydroxypropylcellulose) (HPC)): 115 % of control
T/C (dose: 0.31 mg/kg/injection, schedule: Q01DX009 (ip), vehicle: Klucel (hydroxypropylcellulose) (HPC)): 112 % of control
T/C (dose: 0.63 mg/kg/injection, schedule: Q01DX009 (ip), vehicle: Klucel (hydroxypropylcellulose) (HPC)): 119 % of control
T/C (dose: 2.5 mg/kg/injection, schedule: Q01DX009 (ip), vehicle: Klucel (hydroxypropylcellulose) (HPC)): 123 % of control

NCC(=O)NC(CO)C(=O)O (centres undefined)
T/C [1]: 90 % of control
T/C [2]: 100 % of control
T/C [3]: 106 % of control
T/C [4]: 102 % of control
T/C (dose: 400.0 mg/kg/injection, schedule: Q01DX009 (ip), vehicle: saline): 95 % of control
T/C [5]: 95 % of control

c1ccc(N2CCOCC2)cc1
T/C [6]: 96 % of control
T/C [7]: 96 % of control

CC1CCC2(C(=O)O)CCC3(C)C(=CCC4C5(C)CCC(O)C(C)(C)C5CCC43C)C2C1C (centres undefined)
T/C [6]: 98 % of control
T/C [7]: 91 % of control

CC(=O)NSCC(NC(=O)OC(C)(C)C)C(=O)O (centres undefined)
T/C [8]: 100 % of control
T/C [1]: 101 % of control
T/C [3]: 96 % of control

CS(=O)(=O)OCC1CCCCO1 (centres undefined)
T/C (dose: 100.0 mg/kg/injection, schedule: Q04DX003 (ip), vehicle: Klucel (hydroxypropylcellulose) (HPC)): 92 % of control and 100 % of control
T/C (dose: 200.0 mg/kg/injection, schedule: Q04DX003 (ip), vehicle: Klucel (hydroxypropylcellulose) (HPC)): 100 % of control
T/C (dose: 400.0 mg/kg/injection, schedule: Q04DX003 (ip), vehicle: Klucel (hydroxypropylcellulose) (HPC)): 104 % of control and 108 % of control

CCC[CH2][Pb]([CH2]CCC)([CH2]CCC)[O]C(=O)CCl
T/C (dose: 1.56 mg/kg/injection, schedule: Q01DX009 (ip), vehicle: Klucel (hydroxypropylcellulose) (HPC)): 90 % of control

CC(C)[C@]12O[C@H]1[C@@H]1O[C@]13[C@]1(O[C@H]1C[C@H]1C4=C(CC[C@@]13C)C(=O)OC4)[C@@H]2O
T/C (dose: 8.0 micrograms/kg/injection, schedule: Q01DX009 (ip), vehicle: saline + alcohol): 114 % of control
T/C (dose: 12.5 micrograms/kg/injection, schedule: Q01DX009 (ip), vehicle: saline with Tween-80): 119 % of control
T/C (dose: 16.0 micrograms/kg/injection, schedule: Q01DX009 (ip), vehicle: saline + alcohol): 109 % of control
T/C (dose: 25.0 micrograms/kg/injection, schedule: Q01DX009 (ip), vehicle: saline with Tween-80): 112 % of control
T/C (dose: 32.0 micrograms/kg/injection, schedule: Q01DX009 (ip), vehicle: saline + alcohol): 104 % of control
T/C (dose: 50.0 micrograms/kg/injection, schedule: Q01DX009 (ip), vehicle: saline with Tween-80): 124 % of control
T/C (dose: 64.0 micrograms/kg/injection, schedule: Q01DX009 (ip), vehicle: saline + alcohol): 104 % of control
T/C (dose: 100.0 micrograms/kg/injection, schedule: Q01DX009 (ip), vehicle: saline with Tween-80): 107 % of control
T/C (dose: 200.0 micrograms/kg/injection, schedule: Q01DX009 (ip), vehicle: saline with Tween-80): 122 % of control
T/C (dose: 400.0 micrograms/kg/injection, schedule: Q01DX009 (ip), vehicle: saline with Tween-80): 100 % of control

FC(F)(F)C(F)(Cl)C(Cl)(Cl)C(F)(F)F (centres undefined)
T/C [2]: 92 % of control
T/C [4]: 104 % of control
T/C [5]: 97 % of control

O=C(O)c1ccc2c([N+](=O)[O-])cccc2n1
T/C (dose: 50.0 mg/kg/injection, schedule: Q01DX009 (ip), vehicle: Klucel (hydroxypropylcellulose) (HPC)): 112 % of control
T/C [6]: 112 % of control

Nc1nc2c(ncn2C2OC(CO)C(O)C2O)c(=O)[nH]1 (centres undefined)
T/C (dose: 25.0 mg/kg/injection, schedule: Q01DX009 (ip), vehicle: suspension in saline): 101 % of control
T/C (dose: 50.0 mg/kg/injection, schedule: Q01DX009 (ip), vehicle: suspension in saline): 110 % of control
T/C (dose: 100.0 mg/kg/injection, schedule: Q01DX009 (ip), vehicle: suspension in saline): 113 % of control
T/C (dose: 400.0 mg/kg/injection, schedule: Q01DX009 (ip), vehicle: suspension in saline): 116 % of control

Cc1cc(Cc2ccc(N=C=O)c(C)c2)ccc1N=C=O
T/C (dose: 3.13 mg/kg/injection, schedule: Q01DX009 (ip), vehicle: saline with Tween-80): 89 % of control
T/C (dose: 6.25 mg/kg/injection, schedule: Q01DX009 (ip), vehicle: saline with Tween-80): 92 % of control
T/C (dose: 12.5 mg/kg/injection, schedule: Q01DX009 (ip), vehicle: saline with Tween-80): 92 % of control and 102 % of control

c1ccc(-c2nc(N3CCOCC3)nc3ccccc23)cc1
T/C (dose: 100.0 mg/kg/injection, schedule: Q04DX003 (ip), vehicle: saline with Tween-80): 104 % of control
T/C (dose: 200.0 mg/kg/injection, schedule: Q04DX003 (ip), vehicle: saline with Tween-80): 88 % of control

CN(C)NCCC#N
T/C (dose: 33.0 mg/kg/injection, schedule: Q01DX009 (ip), vehicle: saline): 101 % of control
T/C [8]: 104 % of control
T/C (dose: 75.0 mg/kg/injection, schedule: Q01DX009 (ip), vehicle: saline): 104 % of control and 206 % of control
T/C (dose: 113.0 mg/kg/injection, schedule: Q01DX009 (ip), vehicle: saline): 100 % of control

— PubChem BioAssay AID192 (DTP/NCI, 2004)
